This passage reports TGI results from PubChem BioAssay (NCI).

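Growth conditions: 96-well plates. Treatment: test compound, 48 hours, 5 concentrations. Analysis: linear interpolation between bracketing concentrations; unreached endpoints set to highest concentration. TGI denotes the concentration required for complete inhibition of growth.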

Common to all, as to assay: DTP human tumour cell line panel, 48 h
Experiment [1] deals with NCI-H460 lung.
In experiment [2] the test system is A498 renal.
Experiment [3] has as its system OVCAR-8 ovarian.
Experiment [4] concerns HL-60(TB) leukemia.
The test system of experiment [5] is DU-145 prostate.
Experiment [6] concerns CCRF-CEM leukemia.
In experiment [7] the test system is OVCAR-5 ovarian.
For experiment [8], the system named is 786-0 renal.
For experiment [9], the system named is A549 NSCLC.
The subject of experiment [10] is KM12 colon.
Experiment [11] concerns IGROV1 ovarian.
Experiment [12] concerns SF-539 CNS.
Experiment [13] relates to MALME-3M melanoma.
Experiment [14] concerns MCF7 breast.
For experiment [15], the system named is BT-549 breast.
Experiment [16] deals with NCI-H226 lung.
Experiment [17] has as its system MDA-MB-435.
Experiment [18] relates to MDA-MB-231 breast.
Experiment [19] concerns SK-MEL-28 melanoma.
Experiment [20] deals with SN12C renal.

One may read the TGI as the concentration giving total growth inhibition. A high value points to less potent growth arrest. `NCCc1ccc2c(c1)C(=O)c1c(O)ccc(O)c1C2=O`: the TGI in experiment [1] is > 87.6 µM; in [2], > 100 µM; in experiment [3], 9.19 µM; in experiment [4], 5.34 µM; in [5], > 100 µM; in experiment [6], > 100 µM. For the same compound, the total growth inhibition concentration (TGI) in experiment [7] is > 87 µM; in experiment [8] it was 8.59 µM; in [9], > 45.4 µM; in experiment [10], > 100 µM; in [11], > 100 µM; in experiment [12] it was 7.97 µM. Further, the TGI is 4.75 µM in [13]; > 100 µM in experiment [14]; > 100 µM in experiment [15]; > 100 µM in experiment [16]; > 100 µM in experiment [17]; > 27.8 µM in [18].
With `COc1ccc2c(c1)CC[C@@H]1[C@@H]2CC[C@]2(C)[C@@H](O)/C(=C/c3ccncc3)C[C@@H]12`, the TGI in experiment [1] is 27.3 µM; in experiment [2], 38.3 µM; in experiment [3] it was 28.2 µM; in [4], 39.2 µM; in experiment [5] it was 41 µM; in experiment [6] it was 81 µM. Besides, the TGI in experiment [7] was found to be 30.7 µM; in experiment [8], 31.7 µM; in experiment [9], 41.1 µM; in experiment [19] it was 35.5 µM; in experiment [10], 31.4 µM; in [11], 30 µM. Also, the TGI in [20] is 61.3 µM; in [13], 29.9 µM; in [14], 30.2 µM; in [15] it was 31.6 µM; in experiment [16], 44.7 µM; in [17], 27.3 µM. Also, the total growth inhibition concentration (TGI) in [18] amounted to 32.6 µM.
Take `COc1ccc(-n2c(=O)n(C)c(=O)n2-c2c(C)c(C)c(C)c(C)c2C)cc1`: the concentration for total growth inhibition (TGI) in experiment [1], in experiment [2], in experiment [3], in experiment [5], in [6] and in [7] was > 100 µM throughout. Also, the concentration for total growth inhibition (TGI) in [8], in experiment [9], in experiment [19], in experiment [10], in [11] and in [20] was > 100 µM in each case. In addition, the TGI in experiment [12], in experiment [13], in [14], in [15], in experiment [16] and in experiment [17] was > 100 µM throughout. Also, in [18], the concentration for total growth inhibition (TGI) is > 100 µM.
Take `COC(=O)c1ccc(NCc2cc(O)ccc2O)cc1O`: the concentration for total growth inhibition (TGI) in experiment [1] came out at 31.2 µM; in experiment [2] it was 58.8 µM; in [3], 19.8 µM; in experiment [4], 4.21 µM; in experiment [5] it was 25.3 µM; in experiment [7], 31 µM. In addition, the concentration for total growth inhibition (TGI) in experiment [8] came out at 21.5 µM; in experiment [9] it was 30.4 µM; in experiment [19], 30 µM; in experiment [10] it was 15.3 µM; in [11], 27.8 µM; in experiment [20] it was 29.1 µM. Besides, the total growth inhibition concentration (TGI) is 6.31 µM in experiment [12]; 34.7 µM in experiment [13]; 21.6 µM in experiment [14]; 14.2 µM in experiment [15]; 46.3 µM in experiment [16]; 23.2 µM in [17]. In experiment [18], this compound returned a TGI of 25.7 µM.
Take `C[n+]1c(-c2ccc(/C=N\NC(=O)c3ccc(C(=O)N/N=C/c4ccc(-c5cn6ccsc6[n+]5C)cc4)cc3)cc2)cn2ccsc21`: the TGI in experiment [1] was 42.1 µM; in experiment [2], 33 µM; in experiment [3] it was 40.8 µM; in experiment [4], 43.8 µM; in [5], 35 µM; in experiment [6], > 100 µM. In addition, the concentration for total growth inhibition (TGI) in [7] came out at 36.3 µM; in experiment [8], 36.8 µM; in [9], 57.8 µM; in experiment [10] it was 58.2 µM; in experiment [11], 40.7 µM; in experiment [20], 43.8 µM. Moreover, the total growth inhibition concentration (TGI) in experiment [12] was 56.1 µM; in experiment [13] it was 47.7 µM; in experiment [14], 47.9 µM; in experiment [15], 42.7 µM; in [16], 44.1 µM; in [17], 37.7 µM. The same compound had a TGI in experiment [18] of 42.1 µM.
On to `OC1(c2ccc3ccccc3c2)c2ccc3ccccc3c2C2=NCCN21` (stereo not drawn), for which the TGI in experiment [1] is > 100 µM; in experiment [2], > 100 µM; in experiment [3], 82.2 µM; in experiment [4] it was > 100 µM; in experiment [5] it was > 100 µM; in experiment [6], > 100 µM. Further, the TGI in [7] was > 100 µM; in [8], 69.3 µM; in experiment [9], > 100 µM; in experiment [19], > 100 µM; in [10], > 100 µM; in [11], > 100 µM. In addition, the TGI in experiment [20], in experiment [12], in experiment [13], in experiment [14], in [15] and in experiment [17] was > 100 µM in each case. Moreover, the TGI in experiment [18] was > 100 µM.
Regarding `NC(N)=N/N=C/c1ccc(O)c(C(=O)O)c1`, the TGI in experiment [1], in experiment [2], in experiment [3], in [5], in [6] and in experiment [7] was > 100 µM throughout. The TGI in [8], in [9], in [19], in [10], in experiment [11] and in [12] was > 100 µM each time. Further, the total growth inhibition concentration (TGI) in experiment [13], in experiment [14], in [15], in experiment [16], in experiment [17] and in experiment [18] was > 100 µM in each case.
In the case of `COc1cccc(-c2cc(=O)c3cccnc3[nH]2)c1`, the total growth inhibition concentration (TGI) in experiment [2], in experiment [3], in [5], in [6], in experiment [7] and in experiment [8] was > 100 µM each time. Moreover, the TGI in experiment [9] was > 42.7 µM; in experiment [19], > 100 µM; in experiment [10], > 100 µM; in [11], > 100 µM; in experiment [20], > 100 µM; in [12] it was 0.538 µM. Moreover, the TGI in [13] was > 100 µM; in [14] it was > 100 µM; in experiment [15], > 100 µM; in experiment [17], 0.0855 µM; in experiment [18], > 100 µM.
